Results as given in ChEMBL document CHEMBL1201862, “PubChem BioAssay data set” (2004).
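Test compounds were applied to cells in 96-well plates for 48 hours at 5 doses. GI50: concentration for 50% inhibition of growth.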 Activity calls are given as the source filed them. No stated cut-off is given here; in the data, active = GI50 up to about 1.1 µM and inactive = higher.

How the values were obtained:
Assay in all cases: NCI tumour cell line growth inhibition, 48 h
SK-MEL-2 = tested on: SK-MEL-2
U-251 = tested on: U-251
NCI-H460 = tested on: NCI-H460
OVCAR-4 = tested on: OVCAR-4
UACC-62 = tested on: UACC-62
MOLT-4 = tested on: MOLT-4
SK-MEL-28 = tested on: SK-MEL-28
SK-OV-3 = tested on: SK-OV-3
RXF 393 = tested on: RXF 393
HCT-116 = tested on: HCT-116
HOP-92 = tested on: HOP-92
IGROV-1 = tested on: IGROV-1
KM12 = tested on: KM12
UO-31 = tested on: UO-31
SF-295 = tested on: SF-295
LOX IMVI = tested on: LOX IMVI
SW-620 = tested on: SW-620
OVCAR-5 = tested on: OVCAR-5
ACHN = tested on: ACHN
TK-10 = tested on: TK-10

Measured: GI50

N/C(=N\O)N/N=C/c1ncccc1O
inactive: SK-MEL-2 31.3 µM | U-251 15.5 µM | NCI-H460 5.96 µM | OVCAR-4 18.1 µM | UACC-62 10.3 µM | MOLT-4 11.2 µM | SK-MEL-28 45.9 µM | SK-OV-3 35.9 µM | RXF 393 38.2 µM | HCT-116 11.8 µM | HOP-92 61.7 µM | IGROV-1 16.2 µM | KM12 5.81 µM | UO-31 13.3 µM | SF-295 10.6 µM | LOX IMVI 11.2 µM | SW-620 22 µM | OVCAR-5 31.5 µM

CC12CCC(=O)N1c1cnccc1N2 (configuration not stated)
inactive: SK-MEL-2 > 100 µM | U-251 > 100 µM | NCI-H460 > 100 µM | OVCAR-4 > 100 µM | UACC-62 > 100 µM | MOLT-4 > 100 µM | SK-MEL-28 > 100 µM | SK-OV-3 > 100 µM | ACHN > 100 µM | HCT-116 > 100 µM | HOP-92 > 100 µM | IGROV-1 > 100 µM | KM12 > 100 µM | UO-31 > 100 µM | SF-295 > 100 µM | TK-10 > 100 µM | SW-620 > 100 µM | OVCAR-5 > 100 µM

CCOc1ncn(-c2ccc(NC(=S)Nc3cccc(O)c3)cc2)n1
inactive: U-251 > 100 µM | NCI-H460 > 100 µM | OVCAR-4 > 100 µM | UACC-62 > 100 µM | MOLT-4 > 100 µM | SK-MEL-28 > 100 µM | SK-OV-3 > 100 µM | HCT-116 > 100 µM | HOP-92 > 100 µM | IGROV-1 > 100 µM | KM12 > 100 µM | UO-31 > 100 µM | SF-295 > 100 µM | TK-10 > 100 µM | LOX IMVI > 100 µM | SW-620 > 100 µM | OVCAR-5 > 100 µM

CC1(C)OC[C@H](C(=N)OCc2ccccc2)O1
inactive: SK-MEL-2 > 100 µM | U-251 > 100 µM | NCI-H460 > 100 µM | OVCAR-4 > 100 µM | UACC-62 > 100 µM | MOLT-4 > 100 µM | SK-MEL-28 > 100 µM | SK-OV-3 > 100 µM | ACHN > 100 µM | RXF 393 > 100 µM | HCT-116 > 100 µM | HOP-92 > 100 µM | IGROV-1 > 100 µM | KM12 > 100 µM | UO-31 > 100 µM | SF-295 > 100 µM | TK-10 > 100 µM | SW-620 > 100 µM | OVCAR-5 > 100 µM

COc1cc(OC)cc(Oc2nc3cc(F)c(F)cc3nc2-c2ccccc2)c1
inactive: SK-MEL-2 > 100 µM | U-251 > 100 µM | NCI-H460 > 100 µM | OVCAR-4 > 100 µM | UACC-62 > 100 µM | MOLT-4 > 100 µM | SK-MEL-28 > 100 µM | SK-OV-3 > 100 µM | ACHN > 100 µM | RXF 393 > 100 µM | HCT-116 > 100 µM | HOP-92 > 100 µM | IGROV-1 > 100 µM | KM12 > 100 µM | UO-31 > 100 µM | SF-295 > 100 µM | TK-10 > 100 µM | LOX IMVI > 100 µM | SW-620 > 100 µM | OVCAR-5 > 100 µM

CCCCC(CC)C(=O)Oc1ccc(C(=O)c2ccccc2)c(O)c1 (configuration not stated)
inactive: SK-MEL-2 56.4 µM | U-251 46.7 µM | NCI-H460 35 µM | OVCAR-4 31 µM | UACC-62 32 µM | MOLT-4 24.9 µM | SK-MEL-28 36.8 µM | SK-OV-3 > 100 µM | ACHN 48.1 µM | RXF 393 49.8 µM | HCT-116 43.3 µM | HOP-92 23.2 µM | IGROV-1 55.7 µM | KM12 15.4 µM | UO-31 20.9 µM | SF-295 29.4 µM | TK-10 58.7 µM | LOX IMVI 44.6 µM | SW-620 56.4 µM | OVCAR-5 38.5 µM

N#Cc1c(Cl)cc(Cl)n2c1nc1ccccc12
inactive: SK-MEL-2 17.6 µM | U-251 20 µM | NCI-H460 8 µM | OVCAR-4 10.4 µM | UACC-62 12.6 µM | MOLT-4 3.21 µM | SK-MEL-28 7.35 µM | SK-OV-3 16.9 µM | ACHN 2.64 µM | RXF 393 13.2 µM | HCT-116 4.74 µM | HOP-92 4.85 µM | IGROV-1 8.05 µM | KM12 18.3 µM | UO-31 3.63 µM | SF-295 17.3 µM | TK-10 6.68 µM | LOX IMVI 6.84 µM | SW-620 3.15 µM | OVCAR-5 20 µM
